Assay results taken from patent US20240140965A1, “TRICYCLIC PESTICIDAL COMPOUNDS” (priority 2021, published 2024).

Tests used:
Assay type in all cases: in vivo
[1] = tested on: yellow fever mosquito (Aedes aegypti); assay: whole plant or invertebrate; conditions: 48 h, larval mortality after 2 days, read-out: mortality in comparison with untreated controls
Description: For evaluating control of yellow fever mosquito (Aedes aegypti) the test unit consisted of 96-well-microtiter plates containing 200 μl of tap water per well and 5-15 freshly hatched A. aegypti larvae. The active compounds were formulated using a solution containing 75% (v/v) water and 25% (v/v) DMSO. Different concentrations of formulated compounds or mixtures were sprayed onto the insect diet at 2.5 μl, using a custom built micro atomizer, at two replications. After application, microtiter plates were incubated at 28+1° C., 80+5% RH for 2 days. Larval mortality was then visually assessed.

[2] = tested on: boll weevil (Anthonomus grandis); assay: Boll weevil (Anthonomus grandis) egg and larval mortality, insect diet microtiter plate; conditions: 120 h, read-out: mortality in comparison with untreated controls
Description: For evaluating control of boll weevil (Anthonomus grandis) the test unit consisted of 96-well-microtiter plates containing an insect diet and 5-10 A. grandis eggs. The compounds were formulated using a solution containing 75% v/v water and 25% v/v DMSO. Different concentrations of formulated compounds were sprayed onto the insect diet at 5 μl, using a custom built micro atomizer, at two replications. After application, microtiter plates were incubated at about 25±1° C. and about 75±5% relative humidity for 5 days. Egg and larval mortality was then visually assessed.

[3] = tested on: tobacco budworm (Heliothis virescens); assay: Tobacco budworm (Heliothis virescens) egg and larval mortality, insect diet microtiter plate; conditions: 120 h, read-out: mortality in comparison with untreated controls
Description: For evaluating control of tobacco budworm (Heliothis virescens) the test unit consisted of 96-well-microtiter plates containing an insect diet and 15-25 H. virescens eggs.
The compounds were formulated using a solution containing 75% v/v water and 25% v/v DMSO. Different concentrations of formulated compounds were sprayed onto the insect diet at 10 μl, using a custom built micro atomizer, at two replications. After application, microtiter plates were incubated at about 28±1° C. and about 80±5% relative humidity for 5 days. Egg and larval mortality was then visually assessed.

[4] = tested on: Southern Armyworm (Spodoptera eridania), 2nd instar larvae; assay: Southern armyworm (Spodoptera eridania) 2nd instar larvae mortality on sprayed lima bean plants; conditions: 96 h, read-out: mortality in comparison with untreated controls
Description: The active compounds were formulated by a Tecan liquid handler in 100% cyclohexanone as a 10,000 ppm solution supplied in tubes. The 10,000 ppm solution was serially diluted in 100% cyclohexanone to make interim solutions. These served as stock solutions for which final dilutions were made by the Tecan in 50% acetone:50% water (v/v) into 10 or 20 ml glass vials. A nonionic surfactant (Kinetic®) was included in the solution at a volume of 0.01% (v/v). The vials were then inserted into an automated electrostatic sprayer equipped with an atomizing nozzle for application to plants/insects. Lima bean plants (variety Sieva) were grown 2 plants to a pot and selected for treatment at the 1st true leaf stage. Test solutions were sprayed onto the foliage by an automated electrostatic plant sprayer equipped with an atomizing spray nozzle. The plants were dried in the sprayer fume hood and then removed from the sprayer. Each pot was placed into perforated plastic bags with a zip closure. Ten to 11 armyworm larvae were placed into the bag and the bags zipped closed. Test plants were maintained in a growth room at about 25° C. and about 20-40% relative humidity for 4 days, avoiding direct exposure to fluorescent light (14:10 light:dark photoperiod) to prevent trapping of heat inside the bags. Mortality and reduced feeding were assessed 4 days after treatment, compared to untreated control plants.

[5] = tested on: Green Peach Aphid (Myzus persicae); assay: Green peach aphid (Myzus persicae) mortality on sprayed bell pepper plants; conditions: 120 h, read-out: mortality in comparison with untreated controls
Description: The active compounds were formulated by a Tecan liquid handler in 100% cyclohexanone as a 10,000 ppm solution supplied in tubes. The 10,000 ppm solution was serially diluted in 100% cyclohexanone to make interim solutions. These served as stock solutions for which final dilutions were made by the Tecan in 50% acetone:50% water (v/v) into 10or 20 ml glass vials. A nonionic surfactant (Kinetic®) was included in the solution at a volume of 0.01% (v/v). The vials were then inserted into an automated electrostatic sprayer equipped with an atomizing nozzle for application to plants/insects. Bell pepper plants at the first true-leaf stage were infested prior to treatment by placing heavily infested leaves from the main colony on top of the treatment plants. Aphids were allowed to transfer overnight to accomplish an infestation of 30-50 aphids per plant and the host leaves were removed. The infested plants were then sprayed by an automated electrostatic plant sprayer equipped with an atomizing spray nozzle. The plants were dried in the sprayer fume hood, removed, and then maintained in a growth room under fluorescent lighting in a 14:10 light:dark photoperiod at about 25° C. and about 20-40% relative humidity. Aphid mortality on the treated plants, relative to mortality on untreated control plants, was determined after 5 days.

[6] = tested on: Red Spider Mite (Tetranychus kanzawai); assay: Red spider mite (Tetranychus kanzawai) mortality on sprayed cowpea beans; conditions: 72 h, read-out: mortality in comparison with untreated controls
Description: The active compound is dissolved at the desired concentration in a mixture of 1:1 (vol:vol) distilled water:acetone. Add surfactant (Kinetic) is added at a rate of 0.01% (vol/vol). The test solution is prepared at the day of use. Potted cowpea beans of 4-5 days of age are cleaned with tap water and sprayed with 1-2 ml of the test solution using air driven DeVilbiss® hand atomizer at 20-30 psi (≈1.38 to 2.07 bar). The treated plants are allowed to air dry and afterwards inoculated with 30 or more mites by clipping a cassava leaf section from rearing population. Treated plants are placed inside a holding room at about 25-26° C. and about 65-70% relative humidity. Estimate percent mortality is assessed 72 hours after treatment.

CCS(=O)(=O)c1cc(-c2ccc(F)cc2)cnc1-c1cn2c(n1)SCc1c-2cccc1C(F)(F)F [Compound I.1, 2-[3-ethylsulfonyl-5-(4-fluorophenyl)-2-pyridyl]-6-(trifluoromethyl)-5H-imidazo[1,2-a][3,1]benzothiazine]
> 70%: mortality at 80 ppm [1] | mortality at 10 ppm [2] | mortality at 30 ppm [3] | mortality at 1 ppm [4]

CCS(=O)(=O)c1cc(-c2ccc(F)cc2)cnc1-c1cn2c(n1)CSc1c-2cccc1C(F)(F)F [Compound I.2, 2-[3-ethylsulfonyl-5-(4-fluorophenyl)-2-pyridyl]-6-(trifluoromethyl)-4H-imidazo[2,1-c][1,4]benzothiazine]
> 70%: mortality at 80 ppm [1] | mortality at 10 ppm [2] | mortality at 30 ppm [3] | mortality at 90 ppm [5] | mortality at 1 ppm [4]

CCS(=O)(=O)c1cc(-c2ccc(F)cc2)cnc1-c1cn2c(n1)OCc1c-2cccc1C(F)(F)F [Compound I.3, 2-[3-ethylsulfonyl-5-(4-fluorophenyl)-2-pyridyl]-6-(trifluoromethyl)-5H-imidazo[1,2-a][3,1]benzoxazine]
> 70%: mortality at 80 ppm [1] | mortality at 10 ppm [2] | mortality at 30 ppm [3] | mortality at 90 ppm [5] | mortality at 800 ppm [6] | mortality at 1 ppm [4]

CCS(=O)(=O)c1cc(-c2ccc(F)cc2)cnc1-c1cn2c(n1)COc1c-2cccc1C(F)(F)F [Compound I.4, 2-[3-ethylsulfonyl-5-(4-fluorophenyl)-2-pyridyl]-6-(trifluoromethyl)-4H-imidazo[2,1-c][1,4]benzoxazine]
> 70%: mortality at 80 ppm [1] | mortality at 10 ppm [2] | mortality at 30 ppm [3] | mortality at 1 ppm [4]

CCS(=O)(=O)c1cc(N=S(C)(C)=O)cnc1-c1cn2c(n1)COc1c-2cccc1C(F)(F)F [Compound I.5, [5-ethylsulfonyl-6-[6-(trifluoromethyl)-4H-imidazo[2,1-c][1,4]benzoxazin-2-yl]-3-pyridyl]imino-dimethyl-oxo-lambda6-sulfane]
> 70%: mortality at 250 ppm ([1]; 250 ppm) | mortality at 250 ppm [2] | mortality at 250 ppm [5]
